Results published in patent publication US11951202B2, “Compounds and compositions for use” (DR WELLER LIMITED, priority 2016, dated 2024).

Test system: full thickness human skin homogenate
Test: In vitro NO generation by NO specific Clarke-type electrode, UVA-irradiated skin homogenate
Format: biochemical
Conditions: UVA radiation, nitrite source
Description: Electrochemical sensors are widely used for the measurement of NO generation and Clark-type electrodes are most widely used as they are commercially available and easy to handle. The principle of these sensors is that NO diffuses through a gas-permeable membrane and a thin film of electrolyte, followed by oxidation on the working electrode. This oxidation creates a current that is proportional to the concentration of NO outside the membrane. The advantage of electrochemical NO sensors is the ability to directly detect NO concentration in solution or in biological samples with a low nanomolar detection limit. This makes NO electrodes an excellent tool for studying NO generation especially in biological samples.
We used the Clarke electrode technique to investigate the mechanism of UVA light dependent NO generation in skin and cosmetically acceptable components which could facilitate augment the endogenous process.
A 10% (g/mL) full thickness human skin homogenate in phosphate buffer was prepared using a glass/glass homogenizer. The homogenate was preheated at 56° C. for 1 hour to inactivate enzymatic generation of NO.
200 ul of homogenate was placed in a quartz cuvette in a thermostatically controlled environment and irradiated with broadband (320-400 nm) UVA radiation. Baseline signals were recorded. […]

Row | Compound | sustained UV induced NO generation from nitrite
1 | N[C@@H](CSSC[C@H](N)C(=O)O)C(=O)O [Cystine] | able to participate in sustained NO generation
2 | O=C(O)CCCCC1CCSS1 (centres unmarked) [Lipoic acid (Oxidised), Lipoic acid] | able to participate in sustained NO generation
